Values joined by “and” are separate entries in the source; they are usually repeats but may differ in a detail not shown here. Identical values can stand only once. Like-named read-outs stand apart in the source and are kept apart here.
Tests used:
SFTSV [1] = conditions: read-out: IC50 against SFTSV; cited from earlier work
SFTSV [2] = experiment: microbe, parasite or virus in culture; assay type: cell-based; conditions: for IC50: Severe fever with thrombocytopenia syndrome virus
in vitro = conditions: African green monkey
SFTSV [3] = experiment: microbe, parasite or virus in culture; assay type: cell-based
SFTSV [4] = assay type: cell-based, Severe fever with thrombocytopenia syndrome virus
SFTSV [5] = assay type: cell-based, Severe fever with thrombocytopenia syndrome virus; remark: listed apart in the source
SFTSV [6] = assay type: cell-based, Severe fever with thrombocytopenia syndrome virus; remark: listed apart in the source
SFTSV [7] = assay type: cell-based, Severe fever with thrombocytopenia syndrome virus; conditions: pH 5
SFTSV [8] = assay type: cell-based, Severe fever with thrombocytopenia syndrome virus; remark: listed apart in the source

## Nc1ccn([C@@H]2O[C@H](CO)[C@@H](O)[C@H]2F)c(=O)n1 [2′-fluoro-2′-deoxycytidine]
SFTSV [1]
  IC50: 3.7 µM

## Oc1c(Br)cc(Br)c2cccnc12 [Broxyquinoline, broxyquinoline]
SFTSV [2]
  IC99: 16.3 ± 4.3 µM
  Selectivity Index (CC50/IC50): 6.3
  IC50: 5.8 ± 1.3 µM
In vitro
  CC50: 36.4 ± 5.5 µM

## CC1=NN(c2ccc(C)c(C)c2)C(=O)/C1=N\Nc1cccc(-c2cccc(C(=O)O)c2)c1O [Eltrombopag, eltrombopag]
SFTSV [2]
  IC99: 10.3 ± 3.4 µM
  Selectivity Index (CC50/IC50): 4.5
  IC50: 4.1 ± 0.2 µM
In vitro
  CC50: 18.4 ± 0.2 µM

## Oc1c(Cl)cc(Cl)c(Cl)c1Cc1c(O)c(Cl)cc(Cl)c1Cl [Hexachlorophene, hexachlorophene]
SFTSV [2]
  IC99: 7.5 ± 1.2 µM
  Selectivity Index (CC50/IC50): 18.7
  IC50: 1.3 ± 0.3 µM
SFTSV [2]; read-out: IC50 against SFTSV
  IC50: 1.3 to 2.6 µM
SFTSV [3]
  plaque reduction: 100%
SFTSV [3]; Severe fever with thrombocytopenia syndrome virus, Vero, read-out: IC50, plaque reduction assay
  IC50: 2600 ± 140 nM
SFTSV [4]
  intracellular viral RNA load vs DMSO, drug co-mixed with SFTSV: Significantly lower viral RNA load
SFTSV [5]
  inhibitory activity on virus attachment, cells pretreated with drug: no significant
SFTSV [6]
  virus infectivity after pre-incubation of SFTSV with drug: not significantly
SFTSV [7]
  syncytium formation in SFTSV-infected cells: dramatically inhibited
In vitro
  CC50: 24.3 ± 3.2 µM

## CNC(=O)c1cc(Oc2ccc(NC(=O)Nc3ccc(Cl)c(C(F)(F)F)c3)c(F)c2)ccn1 [Regorafenib, regorafenib]
SFTSV [2]
  IC99: 11.3 ± 0.5 µM
  Selectivity Index (CC50/IC50): 7.0
  IC50: 4.5 ± 0.5 µM
In vitro
  CC50: 31.3 ± 0.5 µM

## Oc1cc(Cl)ccc1Oc1ccc(Cl)cc1Cl [Triclosan, triclosan]
SFTSV [2]
  IC99: 8.5 ± 2.1 µM
  Selectivity Index (CC50/IC50): 5.5
  IC50: 3.2 ± 0.4 µM
In vitro
  CC50: 17.7 ± 2.9 µM

## CCN(CC)Cc1cc(Nc2ccnc3cc(Cl)ccc23)ccc1O [amodiaquine]
SFTSV [1]
  IC50: 19.1 µM

## O=C(O)/C=C/c1ccc(O)c(O)c1 [caffeic acid]
SFTSV [1]
  IC50: 180 µM

## NC(=O)c1nc(F)c[nH]c1=O [favipiravir]
SFTSV [2]
  difference in SFTSV RNA load between drug-treated and DMSO-treated groups: approximately 4 log10
SFTSV [4]
  intracellular viral RNA load vs DMSO, drug co-mixed with SFTSV: no statistically significant difference
SFTSV [8]
  fold read-out between drug-treated and DMSO-treated groups by ELISA: > 10 fold and > 15 fold
SFTSV [1]
  IC50: 25 µM

## NC(=O)c1ncn([C@@H]2O[C@H](CO)[C@@H](O)[C@H]2O)n1 [ribavirin]
SFTSV [1]
  IC50: 40.1 µM
